# Patent US9309242B2, “Substituted pyrido[2,3-b]pyrazines as FGFR kinase inhibitors” (priority 2011, dated 2016)
# Like-named read-outs stand apart in the source and are kept apart here.
# How the values were obtained:
# [1] = target: FGFR1 (h) (Homo sapiens, UniProt P11362); assay: FGFR1 (enzymatic assay), TR-FRET; assay type: biochemical; conditions: read-out: FGFR 1 pIC50 (converted)
# [2] = target: FGFR2 (h) (Homo sapiens, UniProt P21802); assay: FGFR2 (enzymatic assay), TR-FRET; assay type: biochemical; conditions: enzymatic assay, read-out: FGFR 2 pIC50 (converted)
# Procedure, shortened: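 Phosphorylation of 500 nM Btn-Flt3 by human FGFR2 (150 ng/ml) is measured at 0.4 μM ATP. The buffer is 50 mM HEPES pH 7.5 containing 6 mM MnCl2, 1 mM DTT, 0.1 mM Na3VO4 and 0.01% Triton-X-100, and compound is tested at 1% DMSO final.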
# [3] = target: FGFR3 (h) (Homo sapiens, UniProt P22607); assay: FGFR3 (enzymatic assay), TR-FRET; assay type: biochemical; conditions: read-out: FGFR 3 pIC50 (converted)
# Sequence of FGFR3 (h) (P22607 23-806): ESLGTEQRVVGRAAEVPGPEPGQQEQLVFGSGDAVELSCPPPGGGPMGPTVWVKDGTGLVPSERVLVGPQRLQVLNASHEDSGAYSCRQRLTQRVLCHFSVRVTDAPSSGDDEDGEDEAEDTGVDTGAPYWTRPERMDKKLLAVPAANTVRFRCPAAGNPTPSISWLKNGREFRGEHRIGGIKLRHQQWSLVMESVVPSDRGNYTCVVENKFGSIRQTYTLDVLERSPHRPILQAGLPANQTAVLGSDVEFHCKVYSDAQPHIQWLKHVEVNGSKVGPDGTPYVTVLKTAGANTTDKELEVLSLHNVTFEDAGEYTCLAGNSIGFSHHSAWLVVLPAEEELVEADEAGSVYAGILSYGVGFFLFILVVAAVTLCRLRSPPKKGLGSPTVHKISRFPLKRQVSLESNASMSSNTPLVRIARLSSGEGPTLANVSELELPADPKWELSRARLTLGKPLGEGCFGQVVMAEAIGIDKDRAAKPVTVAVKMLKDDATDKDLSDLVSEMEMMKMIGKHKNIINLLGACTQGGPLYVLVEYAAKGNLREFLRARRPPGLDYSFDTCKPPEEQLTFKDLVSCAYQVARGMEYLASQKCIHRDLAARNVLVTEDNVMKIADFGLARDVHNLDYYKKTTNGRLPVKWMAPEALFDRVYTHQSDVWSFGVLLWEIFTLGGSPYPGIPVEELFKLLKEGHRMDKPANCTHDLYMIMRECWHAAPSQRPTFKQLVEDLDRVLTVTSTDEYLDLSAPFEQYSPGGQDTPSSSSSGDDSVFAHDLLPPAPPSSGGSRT
# Source text: Time-Resolved Fluorescence Resonance Energy Transfer (TR-FRET) signal (ex340 nm.
# [4] = target: FGFR4 (h) (Homo sapiens, UniProt P22455); assay: FGFR4 (enzymatic assay), TR-FRET; assay type: biochemical; conditions: FGFR 4 pIC50, enzymatic assay
# [5] = target: KDR (h) (Homo sapiens, UniProt P35968); assay: KDR (VEGFR2) (enzymatic assay), TR-FRET; assay type: biochemical; conditions: read-out: VEGFR 2 (KDR) pIC50 (converted)
# Sequence of KDR (h) (P35968 20-1356): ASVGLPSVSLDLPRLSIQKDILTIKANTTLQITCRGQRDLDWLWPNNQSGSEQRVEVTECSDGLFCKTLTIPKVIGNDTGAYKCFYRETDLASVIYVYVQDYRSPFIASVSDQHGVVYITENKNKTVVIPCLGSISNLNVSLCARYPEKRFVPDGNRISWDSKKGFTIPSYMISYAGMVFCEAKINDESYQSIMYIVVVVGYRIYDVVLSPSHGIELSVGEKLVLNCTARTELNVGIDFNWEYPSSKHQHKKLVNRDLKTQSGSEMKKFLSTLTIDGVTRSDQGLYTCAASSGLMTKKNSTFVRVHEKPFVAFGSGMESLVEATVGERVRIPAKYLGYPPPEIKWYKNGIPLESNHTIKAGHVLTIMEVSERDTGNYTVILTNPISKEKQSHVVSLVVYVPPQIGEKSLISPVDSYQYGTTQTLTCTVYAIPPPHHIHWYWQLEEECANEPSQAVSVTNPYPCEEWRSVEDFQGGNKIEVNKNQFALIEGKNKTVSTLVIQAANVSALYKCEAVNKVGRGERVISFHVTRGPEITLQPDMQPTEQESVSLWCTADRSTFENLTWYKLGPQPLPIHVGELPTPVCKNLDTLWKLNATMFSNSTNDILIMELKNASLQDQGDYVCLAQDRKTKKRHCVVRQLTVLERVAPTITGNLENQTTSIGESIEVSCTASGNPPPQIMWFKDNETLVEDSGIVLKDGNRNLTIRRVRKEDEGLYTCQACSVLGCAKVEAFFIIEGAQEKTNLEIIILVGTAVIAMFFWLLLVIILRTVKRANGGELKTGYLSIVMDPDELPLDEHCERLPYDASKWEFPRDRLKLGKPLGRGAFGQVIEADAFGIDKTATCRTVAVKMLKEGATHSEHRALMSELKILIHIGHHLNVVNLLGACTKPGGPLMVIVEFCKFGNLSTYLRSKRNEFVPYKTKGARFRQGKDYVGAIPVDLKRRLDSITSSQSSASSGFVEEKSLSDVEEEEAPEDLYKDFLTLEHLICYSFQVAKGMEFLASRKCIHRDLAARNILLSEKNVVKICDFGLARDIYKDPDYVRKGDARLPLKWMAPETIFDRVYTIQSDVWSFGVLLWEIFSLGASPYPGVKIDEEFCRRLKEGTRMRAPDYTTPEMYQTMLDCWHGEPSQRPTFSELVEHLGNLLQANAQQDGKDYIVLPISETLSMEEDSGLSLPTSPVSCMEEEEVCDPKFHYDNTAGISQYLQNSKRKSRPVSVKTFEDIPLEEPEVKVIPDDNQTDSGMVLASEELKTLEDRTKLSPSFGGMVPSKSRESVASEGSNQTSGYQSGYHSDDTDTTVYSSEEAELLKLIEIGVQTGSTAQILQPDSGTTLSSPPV
# Procedure, shortened: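 Phosphorylation of biotinylated Flt3 peptide (500 nM) by 150 ng/ml enzyme was measured at 3 μM ATP in Mn2+-containing HEPES buffer, pH 7.5, over 120 min at room temperature. Detection used Eu-anti-P-Tyr and SA-XL-665 TR-FRET.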
# [6] = target: T1, Ba/F3-FGFR1-transfected cells (Homo sapiens, UniProt P11362); assay: Ba/F3-FGFR1 (minus IL3) cellular proliferation assay, Alamar Blue; assay type: cell-based
# T1 construct: BAF3-FGFR1 (MIN IL3) pIC50; other: minus IL3
# T1 sequence (P11362 whole entry, change not shown): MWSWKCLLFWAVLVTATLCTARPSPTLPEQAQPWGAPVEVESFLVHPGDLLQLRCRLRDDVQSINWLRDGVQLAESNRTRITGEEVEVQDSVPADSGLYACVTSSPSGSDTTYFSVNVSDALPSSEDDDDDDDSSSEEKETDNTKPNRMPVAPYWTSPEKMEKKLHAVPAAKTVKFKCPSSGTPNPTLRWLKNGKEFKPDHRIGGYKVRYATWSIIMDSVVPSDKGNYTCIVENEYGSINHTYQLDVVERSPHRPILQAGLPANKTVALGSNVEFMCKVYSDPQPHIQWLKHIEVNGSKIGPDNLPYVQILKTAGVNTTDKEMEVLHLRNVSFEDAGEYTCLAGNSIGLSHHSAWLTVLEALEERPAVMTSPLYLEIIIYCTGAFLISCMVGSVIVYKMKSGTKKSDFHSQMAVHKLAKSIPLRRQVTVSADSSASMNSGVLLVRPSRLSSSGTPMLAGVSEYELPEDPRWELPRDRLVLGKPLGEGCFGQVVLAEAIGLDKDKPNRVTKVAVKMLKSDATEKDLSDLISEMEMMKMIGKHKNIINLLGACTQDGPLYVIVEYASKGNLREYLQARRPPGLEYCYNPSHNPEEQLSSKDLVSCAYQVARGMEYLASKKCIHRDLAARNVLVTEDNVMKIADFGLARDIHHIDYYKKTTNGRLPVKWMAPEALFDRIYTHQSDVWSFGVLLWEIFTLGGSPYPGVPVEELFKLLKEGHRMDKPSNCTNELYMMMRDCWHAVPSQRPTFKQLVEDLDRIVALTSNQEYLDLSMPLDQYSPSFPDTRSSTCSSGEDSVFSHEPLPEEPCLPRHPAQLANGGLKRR
# Procedure, shortened: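 Ba/F3 cells transfected with FGFR1 (20000 cells/well) were plated onto compound in phenol red-free RPMI-1640 with 10% FBS, 2 mM L-glutamine and gentamycin, then kept 24 h at 37 °C, 5% CO2. Alamar Blue (resazurin) was added for 4 h and fluorescence read at ex 540/em 590 nm.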
# [7] = tested on: Ba/F3-FGFR1-transfected cells; assay: Ba/F3-FGFR1 (plus IL3) cellular proliferation assay, counterscreen with 10 ng/ml murine IL3; assay type: cell-based; conditions: plus IL3 (10 ng/ml murine IL3, counterscreen); read-out: BAF3-FGFR1 (PLUS IL3) pIC50 (converted)
# Procedure, shortened: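 Proliferation read-out: resazurin-based Alamar Blue fluorescence (540/590 nm) after 4 h, following 24 h compound treatment of 20000 Ba/F3-FGFR1 cells per well in 10% FBS RPMI at 37° C. IL3 counterscreen used the same protocol plus 10 ng/ml murine IL3.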
# [8] = target: T2, Ba/F3-FGFR3-transfected cells (Homo sapiens, UniProt P22607); assay: Ba/F3-FGFR3 (minus IL3) cellular proliferation assay, Alamar Blue; assay type: cell-based
# T2 construct: BAF3-FGFR3 (MIN IL3) pIC50; other: minus IL3
# T2 sequence (P22607 whole entry, change not shown): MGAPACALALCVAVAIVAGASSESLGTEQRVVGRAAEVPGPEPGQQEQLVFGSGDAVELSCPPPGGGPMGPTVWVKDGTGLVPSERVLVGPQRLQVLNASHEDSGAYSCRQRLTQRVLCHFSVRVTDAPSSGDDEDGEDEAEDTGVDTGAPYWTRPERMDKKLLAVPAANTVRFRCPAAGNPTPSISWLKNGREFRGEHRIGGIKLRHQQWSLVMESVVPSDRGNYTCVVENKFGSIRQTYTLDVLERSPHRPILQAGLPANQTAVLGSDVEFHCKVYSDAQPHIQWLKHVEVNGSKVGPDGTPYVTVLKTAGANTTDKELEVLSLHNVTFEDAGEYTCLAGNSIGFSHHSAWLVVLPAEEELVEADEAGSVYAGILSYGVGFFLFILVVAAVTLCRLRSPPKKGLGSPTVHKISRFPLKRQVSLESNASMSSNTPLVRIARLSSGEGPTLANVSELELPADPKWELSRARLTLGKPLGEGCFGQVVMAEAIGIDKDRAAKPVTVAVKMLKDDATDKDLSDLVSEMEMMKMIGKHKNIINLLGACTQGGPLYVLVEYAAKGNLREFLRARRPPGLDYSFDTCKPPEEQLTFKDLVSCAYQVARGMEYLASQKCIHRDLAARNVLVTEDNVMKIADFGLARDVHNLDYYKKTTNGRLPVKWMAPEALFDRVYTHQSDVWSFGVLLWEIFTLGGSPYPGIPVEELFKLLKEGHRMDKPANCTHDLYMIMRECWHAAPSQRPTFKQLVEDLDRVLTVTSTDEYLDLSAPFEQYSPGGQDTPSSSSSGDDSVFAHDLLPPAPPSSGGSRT
# Procedure, shortened: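 Ba/F3 cells transfected with FGFR3 were seeded at 20000 cells/well in phenol red-free RPMI-1640 with 10% FBS over compound in DMSO and kept 24 hours at 37° C, 5% CO2. Alamar Blue (resazurin) was then added for 4 hours and fluorescence read at ex 540/em 590 nm. The counterscreen repeated this with 10 ng/ml murine IL3.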
# [9] = tested on: Ba/F3-KDR-transfected cells; assay: Ba/F3-KDR (plus IL3) cellular proliferation assay, counterscreen with 10 ng/ml murine IL3; assay type: cell-based; conditions: plus IL3 (10 ng/ml murine IL3, counterscreen); read-out: BAF3-KDR (PLUS IL3) pIC50 (converted)
# Procedure, shortened: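 Compound in DMSO was dispensed first, then transfected cells in serum-containing RPMI-1640 were added. After a 24 h incubation, viability was gauged by resazurin reduction over 4 h, measured as fluorescence.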
# [10] = target: Ba/F3-FGFR4-transfected cells (Homo sapiens, UniProt P22455); assay: Ba/F3-FGFR4 cellular proliferation assay, Alamar Blue; assay type: cell-based
# Sequence of Ba/F3-FGFR4-transfected cells (P22455 whole entry, change not shown): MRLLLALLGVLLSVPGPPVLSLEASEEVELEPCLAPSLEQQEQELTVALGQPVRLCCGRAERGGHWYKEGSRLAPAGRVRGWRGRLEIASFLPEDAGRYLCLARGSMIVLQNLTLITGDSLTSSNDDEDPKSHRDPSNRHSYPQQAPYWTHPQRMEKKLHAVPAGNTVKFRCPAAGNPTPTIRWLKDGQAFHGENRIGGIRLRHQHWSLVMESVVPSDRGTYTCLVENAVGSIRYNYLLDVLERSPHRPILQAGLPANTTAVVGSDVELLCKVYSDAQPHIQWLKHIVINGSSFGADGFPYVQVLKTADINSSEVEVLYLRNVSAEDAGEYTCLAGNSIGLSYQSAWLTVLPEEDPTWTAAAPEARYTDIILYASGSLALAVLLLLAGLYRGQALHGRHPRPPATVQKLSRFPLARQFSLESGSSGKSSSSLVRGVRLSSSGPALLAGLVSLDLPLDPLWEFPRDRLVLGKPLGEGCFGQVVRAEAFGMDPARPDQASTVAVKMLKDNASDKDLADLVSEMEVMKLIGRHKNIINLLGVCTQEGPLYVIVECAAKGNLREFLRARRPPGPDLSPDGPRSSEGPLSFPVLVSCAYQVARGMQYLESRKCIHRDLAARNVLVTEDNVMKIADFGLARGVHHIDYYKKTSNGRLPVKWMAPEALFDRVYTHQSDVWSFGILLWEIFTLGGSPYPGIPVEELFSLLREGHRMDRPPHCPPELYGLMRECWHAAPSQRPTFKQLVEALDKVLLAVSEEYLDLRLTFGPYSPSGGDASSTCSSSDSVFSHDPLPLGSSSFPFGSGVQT
# Procedure, shortened: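 Step one: compound dilutions in DMSO are sprayed into wells. Step two: transfected Ba/F3-FGFR4 cells are added at 20000 per well and incubated 24 hours at 37° C. Step three: Alamar Blue is added for 4 hours and relative fluorescence is measured.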
# [11] = average values if tested multiple times
SMILES,"IC50 [1, 11] [nM]","IC50 [2, 11] [nM]","IC50 [3, 11] [nM]","IC50 [4, 11] [nM]","IC50 [5, 11] [nM]",BAF3-FGFR1 (MIN IL3) pIC50 [6],IC50 [7] [nM],BAF3-FGFR3 (MIN IL3) pIC50 [8],IC50 [9] [nM],BAF3-FGFR4 pIC50 [10],IC50 [1] [nM],IC50 [2] [nM],IC50 [3] [nM],IC50 [4] [nM],IC50 [5] [nM]
COc1ccc(F)c(N(Cc2ncc[nH]2)c2ccc3ncc(-c4cnn(C)c4)nc3n2)c1Cl [Compound 73],2.4,2.82,2.82,15.1,63.1,7.59,> 10000,7.46,> 10000,6.50,,,,,
CNCCN(c1ccc2ncc(-c3cnn(C)c3)nc2n1)c1c(F)c(O)cc(OC)c1F [Compound 122],,,,,,6.74,> 10000,6.09,> 10000,5.67,2.82,3.31,2.51,9.55,50.1
"COc1cc(OC)c(F)c(N(CCCO)c2ccc3ncc(-c4cnn(C)c4)nc3n2)c1F (single isomer, unassigned) [Compound 16]",10,15.8,25.1,25.1,100,8.0,> 10000,7.8,> 10000,7.7,,,,,
COc1cc(OC)c(F)c(N(CCO)c2ccc3ncc(-c4cnn(C)c4)nc3n2)c1 [Compound 40],0.724,1.48,0.646,1.82,17.4,7.80,> 10000,7.84,> 10000,7.04,,,,,
COc1cc(OC)c(Cl)c(N(C[C@H]2CCC(=O)N2)c2ccc3ncc(-c4cnn(C)c4)nc3n2)c1Cl [Compound 97],5.25,6.61,4.68,26.3,95.5,6.80,> 10000,~6.83,> 10000,5.95,,,,,
COc1cc(OC)c(F)c(N(Cc2ccn(C)n2)c2ccc3ncc(-c4cnn(C)c4)nc3n2)c1 [Compound 128],,,,,,8.10,> 10000,8.03,> 10000,7.12,1.32,1.55,1.05,1.29,7.94
COc1cc(OC)c(Cl)c(N(Cc2ncc[nH]2)c2ccc3ncc(-c4cnn(C)c4)nc3n2)c1Cl [Compound 98],~3.89,4.37,2.69,7.76,16.6,7.72,> 10000,7.65,> 10000,6.56,,,,,
COc1cc(OC)cc(N(CC#Cc2ncccc2OC)c2ccc3ncc(-c4cnn(C)c4)nc3n2)c1 [Compound 26],50.1,63.1,39.8,63.1,501,6.8,> 10000,~5.55,> 10000,<5,,,,,
COc1cc(OC)cc(N(Cc2ncc[nH]2)c2ccc3ncc(-c4cnn(C)c4)nc3n2)c1 [Compound 24],0.55,1.12,0.603,0.741,10.7,8.46,> 10000,8.20,> 10000,7.77,,,,,
COc1cc(OC)c(F)c(N(Cc2cnccn2)c2ccc3ncc(-c4cnn(C)c4)nc3n2)c1F [Compound 10],15.8,35.5,63.1,100,31.6,8.1,> 10000,7.85,> 10000,7.57,,,,,
"COc1cc(OC)cc(N(CC(O)C(F)(F)F)c2ccc3ncc(-c4cnn(C)c4)nc3n2)c1 (single isomer, unassigned) [Compound 33]",0.871,2.04,0.708,1.41,75.9,7.60,> 10000,~7.64,> 10000,~7.03,,,,,
COc1cc(OC)c(F)c(N(Cc2cn[nH]c2)c2ccc3ncc(-c4cnn(C)c4)nc3n2)c1 [Compound 125],,,,,,7.61,> 10000,~7.57,> 10000,~7.15,0.851,0.794,0.724,1.58,8.71
COc1cc(OC)c(F)c(N(CCCN2CCCC2=O)c2ccc3ncc(-c4cnn(C)c4)nc3n2)c1 [Compound 120],,,,,,7.27,> 10000,7.16,> 10000,6.84,4.17,3.02,1.86,3.24,19.1
COc1cc(OC)c(F)c(N(Cc2cn(S(=O)(=O)N(C)C)cn2)c2ccc3ncc(-c4cnn(C)c4)nc3n2)c1 [Compound 36],1.55,3.98,1.7,1.48,27.5,7.72,> 10000,~7.57,> 10000,7.30,,,,,
CNCCn1/c(=N/c2c(F)cccc2F)ccc2ncc(-c3cnn(C)c3)nc21 [Compound 44],490,219,~794,2820,> 1000,5.12,> 10000,<5,> 10000,<5,,,,,
COc1cc(OC)c(F)c(N(CC2CCC(=O)N2)c2ccc3ncc(-c4cnn(C)c4)nc3n2)c1F (centres unmarked) [Compound 192],1.15,2.51,1.55,2.09,13.8,7.73,> 10000,7.78,> 10000,7.01,,,,,
COc1cc(OC)c(F)c(N(Cc2ncc[nH]2)c2ccc3ncc(-c4cnn(C)c4)nc3n2)c1 [Compound 23],0.741,1.45,1.07,1,7.08,8.85,> 10000,~8.40,> 10000,8.02,,,,,
